Data: patent US11787819B2, “Crystalline salt of a multi-tyrosine kinase inhibitor, method of preparation, and use thereof” (Mirati Therapeutics, Inc., priority 2021, dated 2023)

Experiments:
[1] = Long term stability studies (related impurities by HPLC); assay type: physicochemical
Experimental: Long term stability studies for Compound 1 Malate Form A were conducted at 2-8° C. and 25° C./60% RH. For each test interval, samples are packaged into double polyethylene bags, individually zip tied and stored in 30 mL white screw cap HDPE bottles.

[2] = Pharmacokinetics in beagle dogs, oral capsule and IV solution; assay type: in vivo
Experimental: Centrifugation began within 1 hour of collection. Plasma was placed into 96-well tubes with barcode labels. Plasma was maintained on dry ice prior to storage at approximately −70° C.

[3] = Clinical trials, salt dosed in patients; assay type: in vivo, human
[4] = Dynamic vapor sorption (DVS); assay type: physicochemical; conditions: 25° C.
Experimental: Moisture sorption/desorption data were collected using a Surface Measurement System (SMS) DVS Intrinsic Instrument according to the manufacturer's instructions. Samples were not dried prior to analysis. Sorption/desorption data were collected over a range from 5% to 95% relative humidity (RH) at 10% RH increments under a nitrogen gas purge. The equilibrium criterion used for analysis was less than 0.0100% weight change in 5 min with a maximum equilibration time of three hours. Data were not corrected for initial moisture content of the samples.
The sample was recovered after completion of the isotherm and re-analyzed by XRPD
Sorption isotherms of Compound 1 Malate Form A were obtained using a SMS DVS Intrinsic moisture sorption analyzer, controlled by DVS Intrinsic Control software. The sample temperature was maintained at 25° C. by the instrument controls. The humidity was controlled by mixing streams of dry and wet nitrogen, with a total flow rate of 200 mL/min. The relative humidity was measured by a calibrated Rotronic probe (dynamic range of 1.0-100% RH), located near the sample. The weight change, (mass relaxation) of the sample as a function of % RH was constantly monitored by a microbalance (accuracy ±0.005 mg).
Briefly, Malate Form A was placed in a tared mesh stainless steel basket under ambient conditions. The sample was loaded and unloaded at 40% RH and 25° C. (typical room conditions) and allowed to equilibrate to 5% RH. A moisture sorption isotherm was performed as outlined below (1 scan per complete cycle). The standard isotherm was performed at 25° C. at 10% RH intervals over a 5-95% RH range. Data analysis was carried out within Microsoft Excel using the DVS Analysis Suite.

[5] = Karl Fischer water content; assay type: physicochemical
Experimental: Coulometric Karl Fischer analysis for water determination was performed using a Mettler Toledo DL39 Karl Fischer titrator with a Stromboli oven attachment. Prior to analyses samples tested were exposed to specified ambient relative humidity for ˜2 hours. Two replicates of the sample were placed into the drying oven set at a temperature of approximately 140 or 145° C. The drying oven was purged into the titrator vessel with dry nitrogen. The samples were then titrated by means of a generator electrode, which produces iodine by electrochemical oxidation: 2I−→I2+2e−. A NIST-traceable water standard (Hydranal Water Standard 10.0) was analyzed to check the operation of the coulometer.
(§1) Experiments were carried out by exposing solids of the test materials to various RH conditions. Preparation of specimens for XRPD analyses of post-stress solids was conducted with minimal exposure to ambient conditions. For selected samples, Karl Fischer analysis was done concurrently with XRPD testing. These samples therefore were kept in a glove bag equilibrated at the RH near to the exposure conditions, and the XRPD specimens were prepared inside the glove bag.
(§2) To investigate this further, stress experiments were conducted at 30% and 93% RH with minimal exposure to ambient RH so that XRPD and water content analyses could be considered representative of the stress conditions. […] In these experiments, a mixture of Malate Form A/Malate Material H was initially subjected to 93% RH for ˜8 days. It was then immediately analyzed by XRPD and Karl Fischer. The same sample was then re-exposed to 30% RH.

[6] = Critical relative humidity stress (XRPD of post-stress solids); assay type: physicochemical; conditions: RT
Experimental: Critical relative humidity (RH) experiments were designed to confirm the physical stability RH range for Malate Form A in the solid-state. […] The water content of Malate Form A and Material D were characterized by Karl Fischer analysis. (See Table 3A(2)).
as §1
A mixture of Malate Form A/Malate Material H was subjected to 0%, 11%, 23%, 69%, and 93% RH, each for approximately 5 days. It should be noted that the stress RH was not maintained during the XRPD specimen preparation and analyses. Therefore, solids from all these stress conditions were briefly exposed to ambient RH estimated as ˜21-23% at the time of the analyses.
as §2

[7] = Heat and elevated temperature/relative humidity stress (XRPD); assay type: physicochemical; conditions: heating at or above 40° C. (7 days at 40° C. and 80° C.; at or above 120° C. for ~1 hour)
Experimental: Heat and elevated temperature/RH stresses were designed to evaluate the physical stability of Compound 1 Malate Form A at elevated temperature. A mixture of Compound 1 Malate Form A/Malate Material H was utilized for testing. Experiments were conducted by heating solids of the test material at 40, 80, 120, and 140-145° C. Solids were also subjected to a combination of elevated temperature and RH, i.e. 40° C./75% RH and 30° C./60% RH (Table 3B).

[8] = Critical water activity slurries in organic solvent/water (XRPD); assay type: physicochemical; conditions: Acetone/H2O 98/2, 1 week, water activity 0.35
Experimental: An evaluation of the physical stability of Malate Form A under solvent-mediated conditions and assessment of the potential competition between solvate and hydrate formation were conducted by slurrying Malate Form A in various organic solvent/water systems (Table 3C).
An acetone/water system was selected for investigation of the stability at water activities between 0.4 and 0.9. Aqueous ACN, Dioxane, DMF, DMSO, and NMP were also investigated. A mixture of Malate Form A/Malate Material H was primarily used as the starting material. Samples of Malate Form A were combined and utilized as the starting material in a single experiment (acetone/water at low water activity).

[9] = Long term stability studies (related impurities by HPLC); assay type: physicochemical; conditions: 6 months storage at 40° C./75% RH, 12 months storage at 40° C./75% RH
[10] = Phase 1 single-dose crossover relative bioavailability study of capsule formulations in Healthy Subjects; assay type: in vivo, humans; conditions: 100 mg capsule, oral administration
Experimental: A Phase 1, 2-part, open-label, single-dose, crossover study was conducted to evaluate the relative bioavailability of Compound 1 Malate vs Compound 1 Free base capsule formulations in Healthy Subjects following oral administration.

[11] = Storage of Tartrate Form A-1 at 2-8° C. (XRPD); assay type: physicochemical; conditions: stored at 2-8° C. for 4 weeks

COCCNCc1ccc(-c2cc3nccc(Oc4ccc(NC(=O)C5(C(=O)Nc6ccc(F)cc6)CC5)cc4F)c3s2)nc1 [Compound 1 Malate Form A]
Related Impurities (HPLC): Total impurities ([1]; 2-8° C., 0 month): 0.86%
Related Impurities (HPLC): Total impurities ([1]; 2-8° C., 3 months): 0.87%
Related Impurities (HPLC): Total impurities ([1]; 2-8° C., 6 months): 0.79%
Related Impurities (HPLC): Total impurities ([1]; 2-8° C., 12 months): 0.78%
Related Impurities (HPLC): Total impurities ([1]; 2-8° C., 24 months): 0.80%
Long term stability (in words) ([1]; 24 months storage at 2-8° C. or 25° C./60% RH): stable
Related Impurities (HPLC): Total impurities ([1]; 25° C./60% RH, 0 month): 0.86%
Related Impurities (HPLC): Total impurities ([1]; 25° C./60% RH, 3 months): 0.76%
Related Impurities (HPLC): Total impurities ([1]; 25° C./60% RH, 6 months): 0.83%
Related Impurities (HPLC): Total impurities ([1]; 25° C./60% RH, 12 months): 0.80%
Related Impurities (HPLC): Total impurities ([1]; 25° C./60% RH, 24 months): 0.90%
Absolute Bioavailability (%) (DN AUC [Oral]/DN AUC [IV]) * 100 ([2]; beagle dogs, orally administered): 34.2%
Improvement in oral bioavailability compared to the amorphous of Compound 1 free base plus surfactant ([2]; dogs, in the absence of surfactant): 2 fold
Dose reduction achieved when the salt was dosed in patients (vs free base) [3]: 20-30%
DVS weight loss, desorption ([4]; 15-5% RH): ~1.7%
DVS weight loss, desorption ([4]; 95-15% RH): approximately 1.3 wt %
DVS weight gain, sorption ([4]; between 5-25% RH): about 2.1 wt %
DVS additional weight gain, sorption ([4]; between 25-95% RH): 1.1 wt %
DVS weight loss upon equilibration at 5% RH ([4]; equilibration at 5% relative humidity): 1.2 wt %
Water content (Karl Fischer) ([5]; after the 30% RH stress): 3.7%
Water content, equivalent in mol ([5]; after the 30% RH stress): about 1.5 mol
Water content (Karl Fischer) ([5]; after the 93% RH stress): 5.3%
Water content, equivalent in mol ([5]; after the 93% RH stress): ~2.5 mol
Calculated H2O content (KF, average value from 2 runs) ([5]; ~12% RH at sample preparation): Calculated H2O content: 3.47%
Calculated H2O content (KF, average value from 2 runs) ([5]; ~17-18% RH at sample preparation, ~35 seconds for preparation): Calculated H2O content: 3.73%
Calculated H2O content (KF, average value from 2 runs) ([5]; ~35-36% RH at sample preparation, ~35 seconds for preparation): Calculated H2O content: 5.32%
XRPD Results after RH stress ([6]; 30% RH, 4 days (~33% ambient RH at sample preparation, glove bag)): Malate Form A, slight peak shifts (c)
XRPD Results after RH stress ([6]; 93% RH, 1 day): Malate Form A,
Relative humidity above which the form is physically stable ([6]; below it a reversible dehydration was seen): above 23 % RH
Effect of heating (XRPD) [7]: partial dehydration
XRPD Results after slurry [8]: Malate Form A + Malate Material B
Long term stability (in words) [9]: stable

COCCNCc1ccc(-c2cc3nccc(Oc4ccc(NC(=O)C5(C(=O)Nc6ccc(F)cc6)CC5)cc4F)c3s2)nc1 [Compound 1, N-(3-fluoro-4-((2-(5-(((2-methoxyethyl)amino)methyl)pyridin-2-yl)thieno[3,2-b]pyridin-7-yl)oxy)phenyl)-N′-(4-fluorophenyl)cyclopropane-1,1-dicarboxamide]
Long term stability (in words) ([1]; room temperature, drug substance and drug product): poor long term stability

COCCNCc1ccc(-c2cc3nccc(Oc4ccc(NC(=O)C5(C(=O)Nc6ccc(F)cc6)CC5)cc4F)c3s2)nc1 [Compound 1 Malate, N-(3-fluoro-4-((2-(5-(((2-methoxyethyl)amino)methyl)pyridin-2-yl)thieno[3,2-b]pyridin-7-yl)oxy)phenyl)-N′-(4-fluorophenyl)cyclopropane-1,1-dicarboxamide (S)-2-hydroxysuccinate (1:1)]
Bioequivalence to 120 mg Compound 1 Free base capsule formulation [10]: bioequivalence was achieved

COCCNCc1ccc(-c2cc3nccc(Oc4ccc(NC(=O)C5(C(=O)Nc6ccc(F)cc6)CC5)cc4F)c3s2)nc1 [Tartrate Form A, N-(3-fluoro-4-((2-(5-(((2-methoxyethyl)amino)methyl)pyridin-2-yl)thieno[3,2-b]pyridin-7-yl)oxy)phenyl)-N′-(4-fluorophenyl)cyclopropane-1,1-dicarboxamide (2R,3R)-2,3-dihydroxysuccinate (1:1)]
XRPD Results after storage [11]: Remained
